Data taken from patent publication US8048862B2, “Macrocyclic inhibitors of hepatitis C virus replication” (priority 2008, dated 2011).

Tests used:
[1] = system: hepatitis C virus (HCV RNA levels), chronic hepatitis C genotype 1; experiment: ITMN-191 monotherapy, 14 days, effect on HCV viral load in patients; type: in vivo; settings: for median reduction in HCV RNA levels at end of treatment (EOT) (Day 14): sodium salt oral
Method: The study was designed to provide the plasma pharmacokinetics (PK) of multiple ascending daily oral doses of ITMN-191 monotherapy and to evaluate the viral kinetics (VK) of multiple ascending daily oral doses of ITMN-191 monotherapy in patients, as measured by changes from Baseline in hepatitis C virus ribonucleic acid (HCV RNA) levels. The ITMN-191 was administered in the form of its sodium salt.
In Part A and Part B, up to six cohorts (treatment arms) of 10 patients each were planned. In Part A, up to five cohorts of 10 treatment-naïve patients per cohort were planned to receive multiple ascending doses of study drug. Patients within each of the five cohorts were randomly assigned 8:2 to receive either ITMN-191 or placebo for 14 days. In Part B, one cohort of non-responder (NR) patients (Cohort 6) was planned to receive a single dose level of study drug for 14 days. Patients in Cohort 6 were randomly assigned 8:2 to receive either ITMN-191 (8 patients) or placebo (2 patients).
The treatment period consisted of 14 days of blinded study drug. In Part A, optional Standard of Care (SOC) consisting of PEG-IFN-α plus ribivarin (RBV) therapy was provided to treatment-naïve patients 24 hours after the last dose on Day 14. In Part B, NR patients were not permitted to start any additional HCV therapy before Day 44.
Efficacy was evaluated by log10 reductions in HCV RNA levels and reductions in ALT values using the Efficacy-Evaluable Population, defined as those patients who received at least 90% of prescribed doses of assigned blinded study drug. Three patients in the treatment-naive 200 mg q12h cohort received less than the assigned randomized dose and were excluded from all efficacy analyses. The HCV RNA levels were determined by Roche COBAS Taqman HCV/HPS test, v2.0. This is a reverse transcriptase PCR method.
In Parts A and B, rebound, plateau, and continuous decline of virologic response profiles were defined based on the HCV RNA level at end of treatment (EOT) relative to the nadir HCV RNA level. […] The frequency of rebound for treatment-naïve patients (Part A) was higher in the 100 mg […] treatment arm (4 patients) than in the higher dose treatment arms (2 to 3 patients). The frequency of rebound for NR patients (Part B) was the same (2 patients) as for the treatment-naïve patients in the 100 mg q8h treatment arm. However, there were no statistically significant differences in ITMN-191 AUC, Cmax, or Cτ between rebound, plateau, and continual decline groups. At EOT, every patient classified as experiencing virologic rebound carried NS3 variants in which arginine at amino acid position 155 was replaced, at least in part, by lysine.

[2] = system: hepatitis C virus (HCV RNA levels), chronic hepatitis C genotype 1; experiment: ITMN-191 combination therapy with SOC (PEG-IFN alfa-2a and ribavirin), 14 days, effect on HCV viral load in patients; type: in vivo; settings: for HCV RNA (<43 IU/mL) (%): after 14 days of treatment; for median change in HCV RNA from baseline: 14 days of triple combination therapy
Excerpt: This is a double-blind, placebo-controlled, multicenter study in treatment-naïve patients with chronic hepatitis C genotype 1 infection. All patients receive standard of care (SOC) treatment with PEG-IFN alfa-2a and weight-based ribavirin in accordance with the product labeling. In addition to this standard of care treatment, patients are randomized to receive either ITMN-191 or matching placebo, administered in the fed state, for 14 complete days, and a single dose on Day 15. PEG-IFN alfa-2a and ribavirin is provided from Day 0 and following the completion of study drug treatment on Day 15 through Day 44. No other HCV therapies are permitted prior to Day 44. All patients receive SOC and then are administered a pill containing either ITMN-191 or placebo. The ITMN-191 was administered in the form of its sodium salt.
Patients are admitted to a research facility and initiate PEG-IFN alfa-2a and ribavirin on Day O, Study drug (ITMN-191 or placebo) administration begins on Day 1 and continues to the morning of Day 15, and patients are discharged from the research facility on Day 16. Meals and activity levels are standardized across research facilities. Patients are contacted by telephone on Day 21 and return to the research facility for the Safety Follow-up Visit on Day 28 and the End of Study Visit on Day 44.
Over the course of the study, blood samples are obtained for clinical laboratory analysis and for PK (pharmokinetics) and VK (viral kinetics). In addition, blood samples to assess VR (viral rebound) are obtained. To monitor potential cardiac toxicity, cardiac troponin are assessed every day during the treatment period.
End of treatment (EOT) and nadir HCV RNA levels were used to define virologic rebound, continual decline, and plateau response patterns. NS3 protease domain was amplified and population sequenced by nested reverse transcription polymerase chain reaction (RT-PCR). Amplicons were cloned into a novel NS3 phenotyping vector and this plasmid used for clonal sequencing. The HCV RNA levels were determined by Roche COBAS Taqman HCV/HPS test, v2.0. This is a reverse transcriptase PCR method.

[3] = NR (nonresponder) patients, 300 mg q8h, 14 days
[4] = all ITMN-191 treated patients, Parts A and B, monotherapy 14 days
[5] = treatment-naïve patients, 200 mg q8h, 14 days
[6] = treatment-naïve patients, 200 mg q12h, 14 days
[7] = any combination therapy cohort, 14 days

In the case of CC(C)(C)OC(=O)N[C@H]1CCCCC/C=C\[C@@H]2C[C@@]2(C(=O)NS(=O)(=O)C2CC2)NC(=O)[C@@H]2C[C@@H](OC(=O)N3Cc4cccc(F)c4C3)CN2C1=O [ITMN-191], the “median ALT decline from Baseline at EOT” value [1, 3] is reported as −34.5 U/L, the “median maximum reduction in HCV RNA levels” value (from here on “median maximum reduction”) [1, 3] is reported as −2.93 log10 IU/mL and the “median reduction in HCV RNA at EOT” value [1, 3] is reported as −2.46 log10 IU/mL. The frequency of rebound ([1]; NR patients (Part B)) was 2 patients, the “patients experiencing continual decline in HCV RNA level” value [1, 4] was 14/40 and the patients experiencing plateau [1, 4] was 12/40. The “median maximum post-Baseline change in HCV RNA” value ([1]; single NR cohort (Part B), 300 mg q12h dose as printed in the conclusions) was −2.93 log10 IU/mL, the frequency of rebound ([1]; treatment-naïve patients, 100 mg q2h treatment arm) was 4 patients and the frequency of rebound ([1]; treatment-naïve patients, 100 mg q8h treatment arm) was 2 patients. The “median EOT reduction of ALT” value [1, 5] was −37.5 U/L, the “median maximum reduction” value [1, 5] was −3.90 log10 IU/mL and the “median reduction in HCV RNA levels at end of treatment (EOT) (Day 14)” value [1, 5] was −3.76 log10 IU/mL. For the same compound, the “median maximum reduction” value [1, 6] was −3.17 log10 IU/mL, the “median reduction in HCV RNA levels at end of treatment (EOT) (Day 14)” value [1, 6] was −3.12 log10 IU/mL and the “HCV RNA (<43 IU/mL) (%)” value ([2]; 100 mg q8h (300 mg) and SOC) was 75%. For the same compound, the “Median Change Log10 (IU/mL) HCV RNA at EOT” value (“Median Change Log10” for short) ([2]; 100 mg q8h (300 mg) in combination with SOC, 14 days) was −5.5 Log10 (IU/mL), the “HCV RNA (<43 IU/mL) (%)” value ([2]; 200 mg q8h (600 mg) and SOC) was 88% and the “Median Change Log10” value ([2]; 200 mg q8h (600 mg) in combination with SOC, 14 days) was −5.7 Log10 (IU/mL). For the same compound, the “Median Change Log10” value ([2]; 300 mg q8h (900 mg) in combination with SOC, 14 days) was −5.6 Log10 (IU/mL), the “Median Change Log10” value ([2]; 400 mg q12h (800 mg) in combination with SOC, 14 days) was −4.7 Log10 (IU/mL) and the “Median Change Log10” value ([2]; 600 mg q12h (1200 mg) in combination with SOC, 14 days) was −5.4 Log10 (IU/mL). The “Median Change Log10” value ([2]; 900 mg q12h (1800 mg) in combination with SOC, 14 days) was −5.5 Log10 (IU/mL), the “patients with HCV RNA below the limit of quantification (<25 IU/mL)” value ([2]; all doses and intervals (32 of 45 patients), combination with SOC, 14 days) was 71% and the “patients with HCV RNA levels below 9.3 IU/mL” value [2, 7] was “at least 13%”. For the same compound, the “patients with HCV RNA levels below 25 IU/mL” value [2, 7] was “at least 57%”, the “median change in HCV RNA from baseline” value ([2]; best performing q8h cohort) was −5.7 log and the “median change in HCV RNA from baseline” value ([2]; best performing q12h cohort) was −5.5 log. For the same compound, the “median change in HCV RNA from baseline” value ([2]; five of the six cohorts) was “exceeded 5 logs”.
